How the values were obtained:
[1] = biological target: T1, recombinant human ghrelin receptor (HEK293/GRLN) (Homo sapiens, UniProt Q92847); assay: Ghrelin inverse agonist potency (EC50) with IP-1 (IP-One HTRF) assay; format: cell-based; conditions: IP-1 assay, HEK293/GRLN; read-out: Activity EC50 (ghrelin inverse agonist potency)
T1 construct: expressed in transfected cells
Summary of the method: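 IP-1 accumulation was measured by HTRF (IP1-d2/Tb-cryptate, 620/665 nm read after 1 hour at room temperature) following 1 hour of compound treatment at 37° C. Cells were HEK293 stably expressing human ghrelin receptor, plated a day earlier on Matrigel. Inverse agonist potency was reported as EC50.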

[2] = Metabolic stability in human liver microsomes; format: in vitro ADME
Summary of the method: (§1)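 Microsomes + compound, 100 mM K phosphate pH 7.4, 37 °C; 5 min preincubation, NADPH regenerating system added to start. Aliquots at 0/10/30/90 min into cold quench, spun 5000×g, supernatant diluted, LC-MS/MS.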

[3] = biological target: T2, GHSR-1a (HEK293/GHSR1a cell line) (Homo sapiens, UniProt Q92847); assay: Ghrelin antagonist potency (IC50) with calcium FLIPR assay, ghrelin 10 nM; format: cell-based; conditions: HEK293/GHSR1a, ghrelin 10 nM, read-out: Activity IC50 (ghrelin antagonist potency)
T2 construct: expressed in transfected cells; host or cells: HEK293/GHSR1a cell line
Summary of the method: (§2)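 Fluorescence read-out of intracellular calcium over 2 min. Agonist EC50 came from compound added alone at t=20 sec. Antagonist IC50 came from the reduction of the response to 10 nM ghrelin co-added with compound at t=20 sec. Both were fitted from dose-response data.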

[4] = biological target: T2, GHSR-1a (HEK293/GHSR1a cell line); assay: Ghrelin agonist potency (EC50) with calcium FLIPR assay; format: cell-based; conditions: HEK293/GHSR1a, read-out: Activity EC50/EMax: EC50 (ghrelin agonist potency)
Summary of the method: as §2

[5] = Metabolic stability in mouse liver microsomes; format: in vitro ADME
Summary of the method: as §1

T1 sequence (Q92847 whole entry): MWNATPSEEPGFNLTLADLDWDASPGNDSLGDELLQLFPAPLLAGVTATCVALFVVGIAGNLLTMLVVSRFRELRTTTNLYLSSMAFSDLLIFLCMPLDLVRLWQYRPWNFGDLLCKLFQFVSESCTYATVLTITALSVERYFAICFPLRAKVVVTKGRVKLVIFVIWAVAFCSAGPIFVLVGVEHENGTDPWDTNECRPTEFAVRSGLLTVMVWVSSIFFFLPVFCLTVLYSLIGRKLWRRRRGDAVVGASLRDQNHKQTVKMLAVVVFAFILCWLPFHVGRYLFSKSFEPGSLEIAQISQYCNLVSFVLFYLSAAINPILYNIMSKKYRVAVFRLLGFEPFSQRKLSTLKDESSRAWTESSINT
T2 sequence (Q92847 whole entry): as above

Compound | EC50 [1] | Metabolic Stability Study H = human [2] | IC50 [3] | EC50 [4] | Metabolic Stability Study M = mouse [5]
CC(NC(=O)Nc1ccc(S(=O)(=O)Nc2ccc3c(c2)CCN(C)C3)cc1)c1ccccc1F (stereo not drawn) [H1347, 4-(3-(1-(2-fluorophenyl)ethyl)ureido)-N-(2-methyl-1,2,3,4-tetrahydroisoquinolin-6-yl)benzenesulfonamide] | 7.95 nM | 59.9 µL/min/mg | 26.2 nM | > 30000 nM | 58.1 µL/min/mg
C[C@@H](NC(=O)Nc1ccc(S(=O)(=O)Cc2cc(F)c3c(c2)CN(C)C3)cc1)c1ccccc1 [H1355, (R)-1-(4-(((7-fluoro-2-methylisoindolin-5-yl)methyl)sulfonyl)phenyl)-3-(1-phenylethyl)urea] | 12.9 nM | 153.5 µL/min/mg | 41 nM | > 30000 nM | 304.3 µL/min/mg
CC(NC(=O)Nc1ccc(S(=O)(=O)Cc2cc3c(s2)CCN(C)C3)cc1)c1cccc(Cl)c1Cl (stereo not drawn) [H1359, 1-(1-(2,3-dichlorophenyl)ethyl)-3-(4-(((5-methyl-4,5,6,7-tetrahydrothieno[3,2-c]pyridin-2-yl)methyl)sulfonyl)phenyl)urea] | 4 nM | H = 108.6 M = 108.6 R = not reported D = not reported μL/min/mg | 1.5 nM | > 30000 nM | H = 108.6 M = 108.6 R = not reported D = not reported μL/min/mg
C[C@@H](NC(=O)Nc1ccc(S(=O)(=O)Cc2ccc3c(c2F)CN(C)C3)cc1)c1ccccc1 [H1363, (R)-1-(4-(((4-fluoro-2-methylisoindolin-5-yl)methyl)sulfonyl)phenyl)-3-(1-phenylethyl)urea] | 3.15 nM | 140.1 µL/min/mg | 8.4 nM | > 30000 nM | 335.3 µL/min/mg
C[C@@H](NC(=O)Nc1ccc(S(=O)(=O)Nc2ccnc(N)n2)cc1)c1cccc(Cl)c1Cl [H1364, (R)-N-(2-aminopyrimidin-4-yl)-4-(3-(1-(2,3-dichlorophenyl)ethyl)ureido) benzenesulfonamide] | 130 nM | < 10 µL/min/mg | 29.6 nM | > 30000 nM | 36 µL/min/mg
CC(NC(=O)Nc1ccc(S(=O)(=O)Cc2cc3c(s2)CN(C)CC3)cc1)c1cccc(Cl)c1Cl (stereo not drawn) [H1384, 1-(1-(2,3-dichlorophenyl)ethyl)-3-(4-(((6-methyl-4,5,6,7-tetrahydrothieno[2,3-c]pyridin-2-yl)methyl)sulfonyl)phenyl)urea] | 2.4 nM | 95.1 µL/min/mg | 5.95 nM | > 30000 nM | 165.1 µL/min/mg
CC(NC(=O)Nc1ccc(S(=O)(=O)Cc2cc3c(cc2F)CNCC3)cc1)c1cccc(Cl)c1Cl (stereo not drawn) [H1385, 1-(1-(2,3-dichlorophenyl)ethyl)-3-(4-(((7-fluoro-1,2,3,4-tetrahydroisoquinolin-6-yl)methyl)sulfonyl)phenyl)urea] | 6.5 nM | H = <10 M = <10 μL/min/mg | 3.98 nM | > 30000 nM | H = <10 M = <10 μL/min/mg
COc1cc(S(=O)(=O)Cc2ccc3c(c2)CCNC3)ccc1NC(=O)NC(C)c1ccccc1 (stereo not drawn) [H1386, 1-(2-methoxy-4-(((1,2,3,4-tetrahydroisoquinolin-6-yl)methyl)sulfonyl)phenyl)-3-(1-phenylethyl)urea] | 11.7 nM | < 10 µL/min/mg | 21.2 nM | > 30000 nM | 11 µL/min/mg
COc1cc(S(=O)(=O)Cc2ccc3c(c2)CCN(C)C3)ccc1NC(=O)NC(C)c1ccccc1 (stereo not drawn) [H1387, 1-(2-methoxy-4-(((2-methyl-1,2,3,4-tetrahydroisoquinolin-6-yl)methyl)sulfonyl)phenyl)-3-(1-phenylethyl)urea] | 3.7 nM | 86.7 µL/min/mg | 7.4 nM | > 30000 nM | 167.5 µL/min/mg
CC(NC(=O)Nc1ccc(S(=O)(=O)Cc2ccc3c(c2)CNC3)cc1F)c1ccccc1F.Cl (stereo not drawn) [H1389, 1-(2-fluoro-4-((isoindolin-5-ylmethyl)sulfonyl)phenyl)-3-(1-(2-fluorophenyl)ethyl)urea] | 15.1 nM | 21.3 µL/min/mg | 27.6 nM | > 30000 nM | 21.2 µL/min/mg
COc1ccccc1C(C)NC(=O)Nc1ccc(S(=O)(=O)Cc2ccc3c(c2)CNC3)cc1F.Cl (stereo not drawn) [H1390, 1-(2-fluoro-4-((isoindolin-5-ylmethyl)sulfonyl)phenyl)-3-(1-(2-methoxyphenyl)ethyl)urea] | 10.7 nM | 34.6 µL/min/mg | 36.4 nM | > 30000 nM | 55.9 µL/min/mg
CC(NC(=O)Nc1ccc(S(=O)(=O)Cc2ccc3c(c2)CNC3)cc1)c1c(F)cccc1F (stereo not drawn) [H1391, 1-(1-(2,6-difluorophenyl)ethyl)-3-(4-((isoindolin-5-ylmethyl)sulfonyl)phenyl)urea] | 7.2 nM | 14.8 µL/min/mg | 10.5 nM | > 30000 nM | 11.8 µL/min/mg
COc1cc(S(=O)(=O)Cc2ccc3c(c2)CNC3)ccc1NC(=O)NC(C)c1ccccc1OC (stereo not drawn) [H1393, 1-(4-((isoindolin-5-ylmethyl)sulfonyl)-2-methoxyphenyl)-3-(1-(2-methoxyphenyl)ethyl)urea] | 3.73 nM | 55.5 µL/min/mg | 9.2 nM | > 30000 nM | 55.1 µL/min/mg
C[C@@H](NC(=O)Nc1ccc(S(=O)(=O)Cc2cc(F)c3c(c2)CNC3)cc1)c1ccccc1.Cl [H1394, (R)-1-(4-(((7-fluoroisoindolin-5-yl)methyl)sulfonyl)phenyl)-3-(1-phenylethyl)urea] | 7.8 nM | 67.4 µL/min/mg | 51.9 nM | > 30000 nM | 182.5 µL/min/mg
C[C@@H](NC(=O)Nc1ccc(S(=O)(=O)Cc2ccc3c(c2F)CNC3)cc1)c1ccccc1 [H1396, (R)-1-(4-(((4-fluoroisoindolin-5-yl)methyl)sulfonyl)phenyl)-3-(1-phenylethyl)urea] | 1.3 nM | 62.5 µL/min/mg | 10.8 nM | > 30000 nM | 330.4 µL/min/mg
CC1c2ccccc2CCN1C(=O)Nc1ccc(S(=O)(=O)Cc2ccc3c(c2)CNC3)cc1 (stereo not drawn) [H1397, N-(4-((isoindolin-5-ylmethyl)sulfonyl)phenyl)-1-methyl-3,4-dihydroisoquinoline-2(1H)-carboxamide] | 67.8 nM | 35.1 µL/min/mg | 1100 nM | > 30000 nM | 32 µL/min/mg
COc1cc(S(=O)(=O)Cc2ccc3c(c2)CNC3)ccc1NC(=O)N(C)C(C)c1ccccc1 (stereo not drawn) [H1398, 3-(4-((isoindolin-5-ylmethyl)sulfonyl)-2-methoxyphenyl)-1-methyl-1-(1-phenylethyl)urea] | 62.6 nM | 52.9 µL/min/mg | 629 nM | > 30000 nM | 80.5 µL/min/mg
CC1Cc2cc(CS(=O)(=O)c3ccc(NC(=O)NC(C)c4ccccc4)cc3)ccc2CN1 (stereo not drawn) [H1406, 1-(4-(((3-methyl-1,2,3,4-tetrahydroisoquinolin-6-yl)methyl)sulfonyl)phenyl)-3-(1-phenylethyl)urea] | 7.92 nM | 15 µL/min/mg | 85.5 nM | > 30000 nM | 22.2 µL/min/mg
CC(NC(=O)Nc1ccc(S(=O)(=O)Cc2ccc3c(c2)CC(C)N(C)C3)cc1)c1ccccc1 (stereo not drawn) [H1407, 1-(4-(((2,3-dimethyl-1,2,3,4-tetrahydroisoquinolin-6-yl)methyl)sulfonyl)phenyl)-3-(1-phenylethyl)urea] | 1.45 nM | 144.4 µL/min/mg | 12.7 nM | > 30000 nM | 84.1 µL/min/mg
CC(NC(=O)Nc1ccc(S(=O)(=O)Cc2ccc3c(c2F)CNC3)cc1)c1c(F)cccc1F (stereo not drawn) [H1410] | 13.2 nM | 73.3 µL/min/mg | 32 nM | > 30000 nM | 358.6 µL/min/mg
COc1cc(S(=O)(=O)Cc2ccc3c(c2)CNC3)ccc1NC(=O)NC(C)c1c(F)cccc1F (stereo not drawn) [H1412, 1-(1-(2,6-difluorophenyl)ethyl)-3-(4-((isoindolin-5-ylmethyl)sulfonyl)-2-methoxyphenyl)urea] | 4.3 nM | 22.5 µL/min/mg | 15.7 nM | > 30000 nM | 122.4 µL/min/mg
